Earlier results as cited in patent US20040131544A1, “In vivo imaging” (priority 1999, published 2004).

Settings: background statement; Doze, et al., Nuclear Medicine and Biology 27:315-319 (2000)

CC(C)NCC(O)COc1cccc2[nH]c3ccccc3c12 (stereo not shown) [carazolol]
adverse properties (mutagenicity / toxicity): not toxic
